One may read the IC50 as the point on the concentration scale where inhibition reaches its midpoint.

Data on 54 compounds can be found in US9174942B2, “IDO inhibitors” (NewLink Genetics Corporation, priority 2008, dated 2015).

The structures appear in SMILES notation. Structures can show the parent of a compound that is named as a salt.

The target in this assay is T1, purified human IDO protein (Homo sapiens, UniProt P14902, E119G/P110S).
T1 construct: 6-Histidine tag (C); made in house; host or cells: E. coli M15(pREP4) transformed with pQE70-hIDO
T1 sequence (P14902 whole entry P110S/E119G): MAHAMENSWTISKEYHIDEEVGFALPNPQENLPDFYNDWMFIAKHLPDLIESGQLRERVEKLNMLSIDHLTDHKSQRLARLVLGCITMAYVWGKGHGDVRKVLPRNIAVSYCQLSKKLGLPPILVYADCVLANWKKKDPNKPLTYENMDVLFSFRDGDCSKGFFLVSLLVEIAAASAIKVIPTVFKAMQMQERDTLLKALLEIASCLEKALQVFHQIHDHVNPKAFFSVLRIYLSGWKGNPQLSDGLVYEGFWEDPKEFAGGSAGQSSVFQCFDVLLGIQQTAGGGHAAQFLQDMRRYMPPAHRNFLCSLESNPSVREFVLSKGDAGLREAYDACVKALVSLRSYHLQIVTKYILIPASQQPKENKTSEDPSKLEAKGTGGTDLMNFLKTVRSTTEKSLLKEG
Put plainly: Enzymatic IDO assay (kynurenine formation, absorbance at 480 nm). The format is biochemical. The settings on record: recombinant human IDO, 200 μM L-tryptophan, pH 6.5; reported in ranges. Here is the method: The inhibitors were initially diluted in DMSO at 100 mM and were diluted in potassium phosphate 50 mM, added to the reaction mixture at final concentrations raging from 1 mM to 5 nM and preincubated with the enzyme for 5 min at 25° C. The reaction was started by addition of L-tryptophan to 200 μM and incubated 15 min at 37° C. The reaction was stopped by addition of 0.5 vol of 30% trichloroacetic acid and incubated 30 min at 60° C. to hydrolyze N-formylkynurenine to kynurenine. The reaction was centrifuged at 3400 g for 5 min to remove precipitated protein and the supernatant was reacted with 2% (w/v) of p-dimethylaminobenzaldehyde in acetic acid. The reaction was incubated 10 min at 25° C. and read at 480 nm in a spectrophotometer. […] Nonlinear regressions and determination of the IC50 values were performed using the GraphPad Prism 4 software.
On to `CCOC(=O)c1ccccc1-c1c[nH]cn1` [Compound 80, ethyl 2-(1H-imidazol-4-yl)benzoate], for which the IC50 fell in the range of 20 to 100 µM.

In the case of `c1ccc(CCn2cncc2-c2ccccc2)cc1` [Compound 81, 1-phenethyl-5-phenyl-1H-imidazole], the IC50 fell in the range of 20 to 100 µM.

For `CC(C)(CCOc1ccccc1-c1c[nH]cn1)CCC(=O)O` [Compound 83, 6-(2-(1H-imidazol-4-yl)phenoxy)-4,4-dimethylhexanoic acid hydrochloride], the IC50 is 20 to 100 µM.

As for `CS(=O)(=O)N1CCC(COc2ccccc2-c2c[nH]cn2)CC1` [Compound 84, 4-((2-(1H-imidazol-4-yl)phenoxy)methyl)-1-(methylsulfonyl)piperidine], the IC50 was 20 to 100 µM.

Take `O=[N+]([O-])c1ccc(Cn2cncc2-c2ccccc2)cc1` [Compound 85, 1-(4-nitrobenzyl)-5-phenyl-1H-imidazole]: the IC50 is 20 to 100 µM.

On to `CC(C)(C)OC(=O)NCCCCn1cncc1-c1ccccc1` [Compound 86, tert-butyl 4-(5-phenyl-1H-imidazol-1-yl)butylcarbamate], for which the IC50 fell in the range of 20 to 100 µM.

Turning to `Clc1cccc(Cn2cncc2-c2ccccc2)c1` [Compound 87, 1-(3-chlorobenzyl)-5-phenyl-1H-imidazole], the IC50 lay in the range of 20 to 100 µM.

For `COc1ccccc1-c1cncn1CCC(C)(C)C` [Compound 89, 1-(3,3-dimethylbutyl)-5-(2-methoxyphenyl)-1H-imidazole], the IC50 lay within 20 to 100 µM.

Regarding `Cc1cccc(Cn2cncc2-c2ccccc2)c1` [Compound 90, 1-(3-methylbenzyl)-5-phenyl-1H-imidazole], the IC50 was in the range of 20 to 100 µM.

As for `Clc1ccc(COc2ccc(OCc3ccc(Cl)cc3)c(-c3c[nH]cn3)c2)cc1` [Compound 91, 4-(2,5-bis(4-chlorobenzyloxy)phenyl)-1H-imidazole], the IC50 fell in the range of 20 to 100 µM.

As for `NCCCOc1ccccc1-c1cnc[nH]1` [Compound 92, 3-(2-(1H-imidazol-5-yl)phenoxy)propan-1-amine], the IC50 lay within 20 to 100 µM.

On to `COc1cccc(Cn2cncc2-c2ccccc2)c1` [Compound 93, 1-(3-methoxybenzyl)-5-phenyl-1H-imidazole], for which the IC50 was in the range of 20 to 100 µM.

As to `N#Cc1cccc(-c2c[nH]cn2)c1` [Compound 94, 3-(1H-imidazol-5-yl)benzonitrile], the IC50 was 20 to 100 µM.

With `O=[N+]([O-])c1cccc(Cn2cncc2-c2ccccc2)c1` [Compound 95, 1-(3-nitrobenzyl)-5-phenyl-1H-imidazole], the IC50 was in the range of 20 to 100 µM.

Consider `N#Cc1ccccc1Cn1cncc1-c1ccccc1` [Compound 96, 2-((5-phenyl-1H-imidazol-1-yl)methyl)benzonitrile], for which the IC50 is 20 to 100 µM.

For `N#Cc1ccc(Cn2cncc2-c2ccccc2)cc1` [Compound 97, 4-((5-phenyl-1H-imidazol-1-yl)methyl)benzonitrile], the IC50 was 20 to 100 µM.

`c1cnc(NCCCOc2ccccc2-c2cnc[nH]2)nc1` [Compound 98, N-(3-(2-(1H-imidazol-5-yl)phenoxy)propyl)pyrimidin-2-amine]: the IC50 lay in the range of 100 to 500 µM.

Turning to `N#Cc1ccccc1COc1ccccc1-c1c[nH]cn1` [Compound 99, 2-((2-(1H-imidazol-4-yl)phenoxy)methyl)benzonitrile], the IC50 was in the range of 100 to 500 µM.

As to `CC(=O)N1CCC(COc2ccccc2-c2c[nH]cn2)CC1` [Compound 100, 1-(4-((2-(1H-imidazol-4-yl)phenoxy)methyl)piperidin-1-yl)ethanone], the IC50 was in the range of 100 to 500 µM.

Turning to `CS(=O)(=O)Nc1ccccc1-c1c[nH]cn1` [Compound 101, N-(2-(1H-imidazol-4-yl)phenyl)methanesulfonamide], the IC50 lay within 100 to 500 µM.

`c1cnc(NCCOc2ccccc2-c2cnc[nH]2)nc1` [Compound 102]: the half-maximal inhibitory concentration (IC50) lay in the range of 100 to 500 µM.

`COc1cccc(OC)c1-c1c[nH]cn1` [Compound 103, 5-(2,6-dimethoxyphenyl)-1H-imidazole]: the IC50 was in the range of 100 to 500 µM.

For the compound `NC(=O)COc1ccccc1-c1c[nH]cn1` [Compound 104, 2-(2-(1H-imidazol-4-yl)phenoxy)acetamide], the half-inhibitory concentration (IC50) lay in the range of 100 to 500 µM.

Regarding `COC(=O)Cn1cncc1-c1ccccc1` [Compound 105, methyl 2-(5-phenyl-1H-imidazol-1-yl)acetate], the IC50 fell in the range of 100 to 500 µM.

With `CC(C)(C)CCn1cncc1-c1ccccc1OCc1ccc(Cl)cc1` [Compound 106, 5-(2-(4-chlorobenzyloxy)phenyl)-1-(3,3-dimethylbutyl)-1H-imidazole], the IC50 fell in the range of 100 to 500 µM.

Regarding `O=CNCCOc1ccccc1-c1c[nH]cn1` [Compound 107, N-(2-(2-(1H-imidazol-4-yl)phenoxy)ethyl)formamide], the IC50 was 100 to 500 µM.

Take `COc1ccccc1Cn1cncc1-c1ccccc1` [Compound 110, 1-(2-methoxybenzyl)-5-phenyl-1H-imidazole]: the 50% inhibitory concentration (IC50) lay within 100 to 500 µM.

Take `CCc1ccc(O)c(-c2cnc[nH]2)c1` [Compound 111, 4-ethyl-2-(1H-imidazol-5-yl)phenol]: the IC50 was 100 to 500 µM.

In the case of `COC(=O)c1cccc(-c2c[nH]cn2)c1` [Compound 112, methyl 3-(1H-imidazol-4-yl)benzoate], the IC50 lay in the range of 100 to 500 µM.

For the compound `O=C(O)c1cccc(-c2c[nH]cn2)c1` [Compound 113, 3-(1H-imidazol-4-yl)benzoic acid], the IC50 lay within 100 to 500 µM.

For `CC(C)(C)OC(=O)NCCn1cncc1-c1ccccc1` [Compound 114, tert-butyl 2-(5-phenyl-1H-imidazol-1-yl)ethylcarbamate], the IC50 is 100 to 500 µM.

Take `COC(=O)c1ccc(-c2c[nH]cn2)cc1` [Compound 115, methyl 4-(1H-imidazol-4-yl)benzoate]: the IC50 fell in the range of 100 to 500 µM.

Regarding `CC(=O)N1CCCC(COc2ccccc2-c2c[nH]cn2)C1` (stereo not drawn) [Compound 117, 1-(3-((2-(1H-imidazol-4-yl)phenoxy)methyl)piperidin-1-yl)ethanone], the IC50 lay in the range of 100 to 500 µM.

For the compound `NCCn1cncc1-c1ccccc1` [Compound 118, 2-(5-phenyl-1H-imidazol-1-yl)ethanamine], the half-maximal inhibitory concentration (IC50) is 100 to 500 µM.

On to `O=C(O)c1ccc(-c2c[nH]cn2)cc1` [Compound 119, 4-(1H-imidazol-4-yl)benzoic acid], for which the IC50 was in the range of 100 to 500 µM.

As to `CCOC(=O)CCCn1cncc1-c1ccccc1` [Compound 121, ethyl 4-(5-phenyl-1H-imidazol-1-yl)butanoate], the IC50 was in the range of 100 to 500 µM.

As to `CCOC(=O)CCn1cncc1-c1ccccc1` [Compound 122, ethyl 3-(5-phenyl-1H-imidazol-1-yl)propanoate], the IC50 lay in the range of 100 to 500 µM.

Consider `c1ccc(Cc2nc[nH]c2-c2ccccc2)cc1` [Compound 123, 4-benzyl-5-phenyl-1H-imidazole], for which the IC50 lay in the range of 100 to 500 µM.

Regarding `CC(=O)NCCCn1cncc1-c1ccccc1` [Compound 124, N-(3-(5-phenyl-1H-imidazol-1-yl)propyl)acetamide], the IC50 is 100 to 500 µM.

In the case of `Oc1ccc(Cn2cncc2-c2ccccc2)cc1` [Compound 125, 4-((5-phenyl-1H-imidazol-1-yl)methyl)phenol], the IC50 fell in the range of 100 to 500 µM.

For the compound `c1ccc(CCc2nc[nH]c2-c2ccccc2)cc1` [Compound 126, 4-phenethyl-5-phenyl-1H-imidazole], the IC50 lay within 100 to 500 µM.

For `CC(=O)NCCCCn1cncc1-c1ccccc1` [Compound 127, N-(4-(5-phenyl-1H-imidazol-1-yl)butyl)acetamide], the IC50 is 100 to 500 µM.

Take `CNC(=O)CCCn1cncc1-c1ccccc1` [Compound 128, N-methyl-4-(5-phenyl-1H-imidazol-1-yl)butanamide]: the IC50 lay within 100 to 500 µM.

In the case of `NC(=O)CCCn1cncc1-c1ccccc1` [Compound 129, 4-(5-phenyl-1H-imidazol-1-yl)butanamide], the IC50 was 100 to 500 µM.

For `NC(=O)c1ccc(COc2ccccc2-c2c[nH]cn2)cc1` [Compound 146, 4-((2-(1H-imidazol-4-yl)phenoxy)methyl)benzamide], the IC50 is 20 to 100 µM.

For the compound `Clc1ccc(COc2cc(Cl)ccc2-c2c[nH]cn2)cc1` [Compound 147, 4-(4-chloro-2-(4-chlorobenzyloxy)phenyl)-1H-imidazole], the IC50 lay within 20 to 100 µM.

On to `Brc1ccccc1CCOc1ccccc1-c1c[nH]cn1` [Compound 148, 4-(2-(2-bromophenethoxy)phenyl)-1H-imidazole], for which the IC50 is less than 20 µM.

Turning to `Clc1ccccc1OCCc1ccccc1-c1c[nH]cn1` [Compound 149, 4-(2-(2-(2-chlorophenoxy)ethyl)phenyl)-1H-imidazole], the IC50 fell in the range of 20 to 100 µM.

For `CC(C)(C)OC(=O)N1CCC(CCOc2ccccc2-c2c[nH]cn2)CC1` [Compound 150, tert-butyl 4-(2-(2-(1H-imidazol-4-yl)phenoxy)ethyl) piperidine-1-carboxylate], the IC50 is 20 to 100 µM.

As to `CC(=O)N1CCC(CCOc2ccccc2-c2c[nH]cn2)CC1` [Compound 151, 1-(4-(2-(2-(1H-imidazol-4-yl)phenoxy)ethyl)piperidin-1-yl)ethanone], the IC50 is less than 20 µM.

Regarding `CC(C)(C)OC(=O)Nc1ccccc1-c1c[nH]cn1` [Compound 152, tert-butyl 2-(1H-imidazol-4-yl)phenylcarbamate], the IC50 was less than 20 µM.

Turning to `O=C(O)c1ccccc1-c1c[nH]cn1` [Compound 153, 2-(1H-imidazol-4-yl)benzoic acid], the IC50 lay in the range of 100 to 500 µM.

As to `CC(=O)NCc1ccc(COc2ccccc2-c2c[nH]cn2)cc1` [Compound 154, N-(4-((2-(1H-imidazol-4-yl)phenoxy)methyl)benzyl) acetamide], the IC50 was 20 to 100 µM.

Take `Nc1ccccc1-c1cnc[nH]1` [Compound 155, 2-(1H-imidazol-4-yl)aniline]: the IC50 fell in the range of 20 to 100 µM.
